Measurements reported in ChEMBL document CHEMBL1201862, “PubChem BioAssay data set” (2004).
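48-hour exposure; five concentrations; linearly interpolated endpoints. Here, GI50 denotes the concentration required for 50% inhibition of growth.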 The source made the active and inactive calls. Cut-off read from the data, not from the text of the source: active = GI50 up to about 1.1 µM and inactive = higher.

How the values were obtained:
Assay in all cases: NCI-60 cell line screen, 48 h
UACC-62 = system: UACC-62
HT-29 = system: HT-29
KM12 = system: KM12
SF-295 = system: SF-295
UO-31 = system: UO-31
SN12C = system: SN12C
HCT-116 = system: HCT-116
HCT-15 = system: HCT-15
ACHN = system: ACHN
NCI-H460 = system: NCI-H460
U-251 = system: U-251
UACC-257 = system: UACC-257
EKVX = system: EKVX
SF-539 = system: SF-539
DU-145 = system: DU-145
DMS-273 = system: DMS-273
PC-3 = system: PC-3
OVCAR-8 = system: OVCAR-8
SK-MEL-5 = system: SK-MEL-5
NCI-H226 = system: NCI-H226

| SMILES | GI50 (UACC-62) | GI50 (HT-29) | GI50 (KM12) | GI50 (SF-295) | GI50 (UO-31) | GI50 (SN12C) | GI50 (HCT-116) | GI50 (HCT-15) | GI50 (ACHN) | GI50 (NCI-H460) | GI50 (U-251) | GI50 (UACC-257) | GI50 (EKVX) | GI50 (SF-539) | GI50 (DU-145) | GI50 (DMS-273) | GI50 (PC-3) | GI50 (OVCAR-8) | GI50 (SK-MEL-5) | GI50 (NCI-H226) |
| --- | --- | --- | --- | --- | --- | --- | --- | --- | --- | --- | --- | --- | --- | --- | --- | --- | --- | --- | --- | --- |
| COc1ccc(N2C(=O)[C@H]3[C@H]4CC(C(C)(C)C)CC[C@H]4c4c(n(C)c5ccccc45)[C@H]3C2=O)cc1 (stereo not given in full) | 53.5 µM (inactive) | > 100 µM (inactive) | > 10 µM (inactive) | > 100 µM (inactive) | > 100 µM (inactive) | > 56.2 µM (inactive) | > 100 µM (inactive) | 5.62 µM | > 100 µM (inactive) | > 10 µM (inactive) | > 56.2 µM (inactive) | > 100 µM (inactive) | > 46.5 µM (inactive) | 32.4 µM (inactive) | > 100 µM (inactive) | > 100 µM (inactive) | > 100 µM (inactive) | > 100 µM (inactive) | 4.65 µM (inactive) | > 100 µM (inactive) |
| Cc1cc2c3ccccc3n(C)c2c2c1C(=O)C=CC2=O | 16.3 µM (inactive) | 9.62 µM (inactive) | 17 µM (inactive) | 27.7 µM (inactive) | 21.8 µM (inactive) | 18.1 µM (inactive) | 20 µM (inactive) | 9.33 µM | 20.9 µM (inactive) | 17.1 µM (inactive) | 17.3 µM (inactive) | 13.2 µM (inactive) | 12 µM (inactive) | 21.6 µM (inactive) | 21.7 µM (inactive) | 13.3 µM (inactive) | 9.91 µM (inactive) | 24.8 µM (inactive) | 27.4 µM (inactive) | 21.2 µM (inactive) |
